Source: article PMC11672562, “Synthesis and Antibacterial Activity of New 6″-Modified Tobramycin Derivatives” (Antibiotics, 2024)
Converted amounts (≈) assume the structure as drawn. Where two headings read alike, the source gives them in different places. Values belong to the compound of their own block, whether it stands above or below them.

Legend:
[1] = tested on: E. coli JW5503 transformed with pJC27 plasmids; assay: Translation accuracy reporter (mutant β-galactosidase, X-Gal staining); type: cell-based; settings: 4a,b, 6a,b and tobramycin 50 mg/mL; streptomycin, kanamycin 5 mg/mL; rifampicin 1 mg/mL
Source text: It is known that tobramycin inhibits protein biosynthesis by the blocking of initiation and inducing translation errors. We have tested whether the new tobramycin derivatives 4a,b and 6a,b retain the ability to induce translation errors. This assay uses an E. coli strain with a plasmid construct that encodes beta-galactosidase in such a way that a functional protein is only synthesized in the presence of translation errors. If the mechanism of action of the antibiotic is related to the translation errors, we observe indigo blue staining along the edge of the inhibition zone because functional b-galactosidase degrades the substrate X-Gal. As a result, if the antibiotic causes translation errors, blue staining forms around the edge of the inhibition zone. […] According to this, an introduction at the 6″-position of the aminoalkylamino or guanidinoalkylamino residues of tobramycin retains an original mechanism of aminoglycoside’s antibacterial activity affecting the protein synthesis.
To qualitatively evaluate translation accuracy in the presence of antibiotics, E. coli JW5503 [34] (kanamycin resistance cassette removed as per) transformed with pJC27 plasmids was utilized. The plasmids encode the β-galactosidase gene containing a mutation in its active center (E537: GAA→GAC/GGG), alongside a control plasmid without the mutation. Active β-galactosidase synthesis could only occur if translation errors were introduced. Petri dishes (9 cm) containing 20 mL of solid LB agar (1.5%) supplemented with chloramphenicol (11.3 μg/mL) and X-Gal (80 μg/mL) were prepared. A secondary layer comprising 3.5 mL of LB agar (0.6%), supplemented with 11.3 μg/mL chloramphenicol and 0.5 mL of liquid culture (A600~1.0), was added and allowed to solidify. Antibiotics were applied to the plates in 1 μL aliquots at the following concentrations: 50 mg/mL for 4a, 4b, 6a, 6b, and tobramycin; 5 mg/mL for streptomycin and kanamycin; and 1 mg/mL for rifampicin. Plates were incubated at 37 °C for 18 h. […] Results were documented using a Samsung Galaxy Tab A71 camera.

P. aeruginosa ATCC 27853 = assay: MIC, broth microdilution, P. aeruginosa ATCC 27853; type: cell-based
Description: The microbial strains used in this study were obtained from the collection of the Gause Institute of New Antibiotics. […] Storage was carried out in accordance with CLSI guidelines.
(§1) Activity was evaluated by determining the minimum inhibitory concentration (MIC) values using the microdilution method in Mueller–Hinton Broth (Beckton and Dickinson, Le Pont-de-Claix, France), in accordance with the standard procedure for assessing the antimicrobial susceptibility of microorganisms.
(§2) The analysis was conducted in 96-well microtiter plates (Medpolymer, Saint Petersburg, Russia). The bacterial inoculum was introduced within 15 min of preparation. […] Microbial growth in the presence of the tested compounds was compared to the growth control (without exposure to the test samples). The MIC was defined as the lowest concentration at which visible microbial growth was inhibited.
(§3) The MIC values of the reference strains were required to fall within the acceptable ranges specified in [30], provided that standard assay conditions were maintained.

[2] = tested on: resistant clinical isolates of P. aeruginosa; assay: MIC against resistant clinical isolates of P. aeruginosa; type: cell-based; settings: Pseudomonas aeruginosa, P. aeruginosa strain
Description: (§4) The microbial strains used in this study were obtained from the collection of the Gause Institute of New Antibiotics. […] Storage was carried out in accordance with CLSI guidelines. Prior to experimentation, the bacterial strains were revived from cryopreservation by inoculating them onto trypticase soy agar (Becton, Dickinson, France) and incubating at (36 ± 1) °C for 16–24 h. Individual morphologically homogeneous colonies were then suspended in sterile physiological saline, and the turbidity of the suspension was adjusted to 0.5 McFarland units using a DEN-1 spectrophotometer (Biosan, Riga, Latvia), which corresponds to a concentration of 1.5 × 10^8 CFU/mL.
(§5) The samples were dissolved in sterile distilled water or dimethyl sulfoxide (DMSO), depending on the physicochemical properties of the compounds under investigation, to a concentration of 10,000 µg/mL.
as §1, §2

[3] = tested on: E. coli JW5503 kanS EF-G P610T; assay: MIC in LB medium, aminoglycoside-resistant mutant EF-G P610T; type: cell-based; settings: 18 h
Description: (§6) The determination of the minimum inhibitory concentration (MIC) was performed on three strains from the working collection of MSU: E. coli JW5503 [34], which lacked a kanamycin resistance cassette removed as per the method outlined in [39], and two strains derived from this strain through in vivo selection with kanamycin. The latter strains harbored P610T and P610L substitutions in the fusA gene. For the MIC determination, 100 μL (rows 2–11) and 200 μL (row 1) of LB liquid medium containing a 1:1000 dilution of overnight culture was added to each well of a 96-well transparent plate. Subsequently, 2 μL of a 50 μg/mL antibiotic solution was introduced into the first row, and serial two-fold dilutions were performed across each horizontal row, decreasing the antibiotic concentration incrementally. The final two rows were designated as controls: row 12 contained LB medium without cells or antibiotics, and row 11 contained cells without antibiotics. Following 18 h of incubation at 37 °C with constant agitation, the optical density at 590 nm (A590) was measured using a Victor X5 2030 spectrofluorometer (PerkinElmer, Waltham, MA, USA). The MIC was defined as the antibiotic concentration in the first well where no cell growth occurred. Each experiment was conducted in triplicate for all tested antibiotics.

E. coli JW5503 = assay: MIC, broth microdilution, E. coli JW5503; type: cell-based; settings: E. coli JW5503; Table 1
Description: as §4, §5, §1, §2

S. aureus ATCC 29213 = assay: MIC, broth microdilution, S. aureus ATCC 29213; type: cell-based
Description: as §4, §5, §1, §2, §3

M. smegmatis ATCC 607 = assay: MIC, broth microdilution, M. smegmatis ATCC 607; type: cell-based; settings: Table 1
Description: as §4, §5, §1, §2

[4] = tested on: E. coli JW5503 kanS EF-G P610L; assay: MIC in LB medium, aminoglycoside-resistant mutant EF-G P610L; type: cell-based; settings: 18 h
Description: as §6

[5] = tested on: E. coli S30 Extract System, firefly luciferase synthesis; assay: Cell-free translation inhibition assay (firefly luciferase synthesis); type: biochemical; settings: final concentration of 2 μM; water = 100
Description: The inhibitory effects of the tested compounds on in vitro firefly luciferase synthesis were evaluated using the E. coli S30 Extract System for Linear Templates (Promega, Madison, WI, USA), as described previously. Briefly, reaction mixtures with a total volume of 5 μL were prepared, containing 0.1 mM of a mixture of all canonical amino acids, 4 U of RiboLock RNase Inhibitor (Thermo Fisher Scientific, Waltham, MA, USA), and 2 μM of the tested compounds. After pre-incubation at room temperature for 5 min, 100 ng of in vitro-transcribed firefly luciferase mRNA was added. The mixtures were then incubated at 37 °C for 20 min. After incubation, each reaction was supplemented with 5 μL of Bright-Glo™ reagent (Promega, Madison, WI, USA), and chemiluminescence was measured using a VICTOR X5 Multilabel Plate Reader (PerkinElmer, Waltham, MA, USA). The luminescence values were normalized to the negative control (water), which was assigned 100% activity.

E. coli ATCC 25922 = assay: MIC, broth microdilution, E. coli ATCC 25922; type: cell-based
Description: as §4, §5, §1, §2, §3

E. coli JW5503 kanS = assay: MIC in LB medium, E. coli JW5503 kanS; type: cell-based; settings: 18 h
Description: as §6

[6] = quality control, must fall in acceptable ranges of [30]

Compound: [H]/N=C(/N)N[C@H]1[C@H](O)[C@@H](O)[C@H](O[C@@H]2O[C@@H](C)[C@](O)(C=O)[C@H]2O[C@@H]2O[C@@H](CO)[C@H](O)[C@@H](O)[C@@H]2NC)[C@@H](N/C(N)=N\[H])[C@@H]1O [streptomycin, reference compound]
induction of translation errors (blue staining at edge of inhibition zone) [1]: acted as miscoding inductors

MIC (P. aeruginosa ATCC 27853; Pseudomonas aeruginosa, ATCC27853, P. aeruginosa ATCC 27853, Table 2, read-out: MIC): 4 µg/mL (≈ 9.19 µM)
MIC ([2]; Table 2 column 3, head prints 27853): 16 µg/mL (≈ 36.7 µM)
MIC ([2]; Table 2 column 4, head prints 27853): 8 µg/mL (≈ 18.4 µM)
MIC ([2]; Table 2 column 5, head prints 27853): 32 µg/mL (≈ 73.5 µM)
MIC ([2]; Table 2 column 6, head prints 27853): 16 µg/mL (≈ 36.7 µM)
MIC ([2]; Table 2 column 7, head prints 27853): 16 µg/mL (≈ 36.7 µM)
Compound: C[C@H]1[C@H](NC(=O)/C(=N\OC(C)(C)C(=O)O)c2csc(N)n2)C(=O)N1S(=O)(=O)O [Aztreonam, aztreonam, reference compound]

Compound: kanamycin A [reference compound]
MIC ([3]; E. coli JW5503 kanS EF-G P610T, LB medium): 80 µg/mL
MIC (E. coli JW5503): 1 µg/mL
induction of translation errors (blue staining at edge of inhibition zone) [1]: acted as miscoding inductors
MIC (S. aureus ATCC 29213; Table 1): 0.5 µg/mL
MIC of control antibiotic (S. aureus ATCC 29213; [6]): 1 to 4 µg/mL
MIC (M. smegmatis ATCC 607): 0.125 µg/mL
MIC ([4]; E. coli JW5503 kanS EF-G P610L, LB medium): 80 µg/mL
MIC (P. aeruginosa ATCC 27853; P. aeruginosa ATCC 27853, Table 1): >32 µg/mL
MIC (P. aeruginosa ATCC 27853; P. aeruginosa ATCC 27853, Table 1, listed as kanamycin): > 32 µg/mL
% control signal (relative maximal rate of firefly luciferase accumulation in vitro) [5]: 0.1%
MIC (E. coli ATCC 25922; Table 1): 1 µg/mL
MIC of control antibiotic (E. coli ATCC 25922; [6]): 1 to 4 µg/mL
MIC (E. coli JW5503 kanS; E. coli JW5503 kanS, LB medium): 5 µg/mL

Compound: CC[C@H]1OC(=O)[C@H](C)[C@@H](O[C@H]2C[C@@](C)(OC)[C@@H](O)[C@H](C)O2)[C@H](C)[C@@H](O[C@@H]2O[C@H](C)C[C@H](N(C)C)[C@H]2O)[C@](C)(O)C[C@@H](C)C(=O)[C@H](C)[C@@H](O)[C@]1(C)O [Erythromycin, erythromycin, reference compound]
MIC ([3]; Escherichia coli): 2 µg/mL (≈ 2.73 µM)
MIC ([4]; Escherichia coli): 2 µg/mL (≈ 2.73 µM)
% control signal (relative maximal rate of firefly luciferase accumulation in vitro) [5]: 0.8%
MIC (E. coli JW5503 kanS; Escherichia coli, JW5503KANS): 2 µg/mL (≈ 2.73 µM)

Compound: CO[C@H]1/C=C/O[C@@]2(C)Oc3c(C)c(O)c4c(O)c(c(/C=N/N5CCN(C)CC5)c(O)c4c3C2=O)NC(=O)/C(C)=C\C=C\[C@H](C)[C@H](O)[C@@H](C)[C@@H](O)[C@@H](C)[C@H](OC(C)=O)[C@@H]1C [Rifampicin, rifampicin, reference compound]
MIC ([3]; Escherichia coli): 5 µg/mL (≈ 6.08 µM)
induction of translation errors (blue staining at edge of inhibition zone) [1]: does not induce ribosomal errors
MIC ([4]; Escherichia coli): 5 µg/mL (≈ 6.08 µM)
% control signal (relative maximal rate of firefly luciferase accumulation in vitro) [5]: 87%
MIC (E. coli JW5503 kanS; Escherichia coli, JW5503KANS): 5 µg/mL (≈ 6.08 µM)
